# Assay results: ChEMBL document CHEMBL1121578, “Synthesis of certain [6:5:6] linear tricyclic nucleosides as potential antitumor agents” (1980)
# System: Mus musculus
# Test: In vivo increase in life span of drug treated (L1210-bearing) mice administered at a dose of 400 mg/kg/injection
# Format: functional
# Conditions: not given
row,SMILES,ILS at 400 mg/kg
1,Nc1ncnc2c1c1c(O)nc(S)nc1n2C1O[C@H](CO)[C@@H](O)[C@H]1O (stereo partly specified),14%
2,Nc1ncnc2c1c1c(O)nc(O)nc1n2C1O[C@H](CO)[C@@H](O)[C@H]1O (stereo partly specified),108%
3,Nc1ncnc2c1c1c(S)nc(S)nc1n2C1O[C@H](CO)[C@@H](O)[C@H]1O (stereo partly specified),10%
4,CSc1nc(N)c2c3c(N)ncnc3n(C3O[C@H](CO)[C@@H](O)[C@H]3O)c2n1 (stereo partly specified),1%

# System: Mus musculus
# Test: In vivo increase in life span of drug treated (P388-bearing) mice administered at a dose of 200 mg/kg/injection
# Format: functional
# Conditions: not given
row,SMILES,ILS at 200 mg/kg
1,CSc1ncnc2c1c1c(N)ncnc1n2C1O[C@H](CO)[C@@H](O)[C@H]1O (stereo partly specified),5%

# System: Mus musculus
# Test: In vivo increase in life span of drug treated (L1210-bearing) mice administered at a dose of 8 mg/kg/injection
# Format: functional
# Conditions: not given
row,SMILES,ILS at 8 mg/kg
1,N#Cc1c(N)n(C2O[C@H](CO)[C@@H](O)[C@H]2O)c2ncnc(N)c12 (stereo partly specified),26%

# System: Mus musculus
# Test: In vivo increase in life span of drug treated (P388-bearing) mice administered at a dose of 50 mg/kg/injection
# Format: functional
# Conditions: not given
row,SMILES,ILS at 50 mg/kg
1,Nc1ncnc2c1c1c(O)ncnc1n2C1O[C@H](CO)[C@@H](O)[C@H]1O (stereo partly specified),33%

# System: L1210
# Test: Concentration required to reduce the growth rate of L-1210 cells to half of the control rate; No effect on cell growth of 1E-4 M of the compound
# Format: functional, cell-based
# Conditions: Mus musculus
row,SMILES,ID50
1,Nc1ncnc2c1c1c(N)ncnc1n2[C@@H]1O[C@H](CO)[C@@H](O)[C@H]1O,No effect
2,CSc1nc(O)nc2c1c1c(N)ncnc1n2C1O[C@H](CO)[C@@H](O)[C@H]1O (stereo partly specified),No effect
3,CSc1nc(N)c2c3c(N)ncnc3n(C3O[C@H](CO)[C@@H](O)[C@H]3O)c2n1 (stereo partly specified),No effect

# System: L1210
# Test: Concentration required to reduce the growth rate of L-1210 cells to half of the control rate
# Format: functional
# Conditions: Mus musculus, read-out: ID50 (the source's name)
row,SMILES,IC50
1,CSc1nc(O)c2c3c(N)ncnc3n(C3O[C@H](CO)[C@@H](O)[C@H]3O)c2n1 (stereo partly specified),80 µM
2,Nc1ncnc2c1c1c(=S)[nH]c(=O)[nH]c1n2C1O[C@H](CO)[C@@H](O)[C@H]1O (stereo partly specified),11 µM
3,Nc1ncnc2c1c1cncnc1n2C1O[C@H](CO)[C@@H](O)[C@H]1O (stereo partly specified),> 100 µM
4,Nc1ncnc2c1c1c(O)nc(S)nc1n2C1O[C@H](CO)[C@@H](O)[C@H]1O (stereo partly specified),7 µM
5,N#Cc1c(N)n(C2O[C@H](CO)[C@@H](O)[C@H]2O)c2ncnc(N)c12 (stereo partly specified),0.18 µM
6,Nc1ncnc2c1c1c(O)nc(O)nc1n2C1O[C@H](CO)[C@@H](O)[C@H]1O (stereo partly specified),~100 µM
7,CSc1nc(SC)c2c3c(N)ncnc3n(C3O[C@H](CO)[C@@H](O)[C@H]3O)c2n1 (stereo partly specified),78 µM
8,Nc1ncnc2c1c1c(S)nc(S)nc1n2C1O[C@H](CO)[C@@H](O)[C@H]1O (stereo partly specified),6.1 µM
9,Nc1ncnc2c1c1c(O)ncnc1n2C1O[C@H](CO)[C@@H](O)[C@H]1O (stereo partly specified),63 µM
10,NC(=S)c1c(N)n(C2O[C@H](CO)[C@@H](O)[C@H]2O)c2ncnc(N)c12 (stereo partly specified),0.22 µM
11,N#Cc1c(Br)n(C2O[C@H](CO)[C@@H](O)[C@H]2O)c2ncnc(N)c12 (stereo partly specified),0.21 µM
12,NC(=O)c1c(N)n(C2O[C@H](CO)[C@@H](O)[C@H]2O)c2ncnc(N)c12 (stereo partly specified),16 µM
13,C=CCSc1ncnc2c1c1c(N)ncnc1n2C1O[C@H](CO)[C@@H](O)[C@H]1O (stereo partly specified),110 µM
14,Nc1ncnc2c1c1cnc(O)nc1n2C1O[C@H](CO)[C@@H](O)[C@H]1O (stereo partly specified),75 µM
15,Nc1nc2c(c(=O)[nH]1)c1c(N)ncnc1n2[C@@H]1O[C@H](CO)[C@@H](O)[C@H]1O,2.5 µM
16,Nc1ncnc2c1c1c(SCc3ccc([N+](=O)[O-])cc3)ncnc1n2C1O[C@H](CO)[C@@H](O)[C@H]1O (stereo partly specified),45 µM
17,CSc1ncnc2c1c1c(N)ncnc1n2C1O[C@H](CO)[C@@H](O)[C@H]1O (stereo partly specified),8.6 µM
18,Nc1ncnc2c1c1c(N)nc(O)nc1n2C1O[C@H](CO)[C@@H](O)[C@H]1O (stereo partly specified),120 µM
19,Nc1ncnc2c1c1c(S)ncnc1n2C1O[C@H](CO)[C@@H](O)[C@H]1O (stereo partly specified),2 µM

# System: Mus musculus
# Test: In vivo increase in life span of drug treated (L1210-bearing) mice administered at a dose of 200 mg/kg/injection
# Format: functional
# Conditions: not given
row,SMILES,ILS at 200 mg/kg
1,CSc1nc(O)c2c3c(N)ncnc3n(C3O[C@H](CO)[C@@H](O)[C@H]3O)c2n1 (stereo partly specified),0%
2,Nc1ncnc2c1c1cncnc1n2C1O[C@H](CO)[C@@H](O)[C@H]1O (stereo partly specified),2%
3,CSc1nc(SC)c2c3c(N)ncnc3n(C3O[C@H](CO)[C@@H](O)[C@H]3O)c2n1 (stereo partly specified),45%
4,CSc1nc(O)nc2c1c1c(N)ncnc1n2C1O[C@H](CO)[C@@H](O)[C@H]1O (stereo partly specified),4%
5,C=CCSc1ncnc2c1c1c(N)ncnc1n2C1O[C@H](CO)[C@@H](O)[C@H]1O (stereo partly specified),9%
6,Nc1nc2c(c(=O)[nH]1)c1c(N)ncnc1n2[C@@H]1O[C@H](CO)[C@@H](O)[C@H]1O,13%
7,Nc1ncnc2c1c1c(SCc3ccc([N+](=O)[O-])cc3)ncnc1n2C1O[C@H](CO)[C@@H](O)[C@H]1O (stereo partly specified),-2%
8,CSc1ncnc2c1c1c(N)ncnc1n2C1O[C@H](CO)[C@@H](O)[C@H]1O (stereo partly specified),9%
9,Nc1ncnc2c1c1c(N)nc(O)nc1n2C1O[C@H](CO)[C@@H](O)[C@H]1O (stereo partly specified),21%

# System: Mus musculus
# Test: In vivo increase in life span of drug treated (L1210-bearing) mice administered at a dose of 120 mg/kg/injection
# Format: functional
# Conditions: not given
row,SMILES,ILS at 120 mg/kg
1,NC(=O)c1c(N)n(C2O[C@H](CO)[C@@H](O)[C@H]2O)c2ncnc(N)c12 (stereo partly specified),30%

# System: Mus musculus
# Test: In vivo increase in life span of drug treated (L1210-bearing) mice administered at a dose of 25 mg/kg/injection
# Format: functional
# Conditions: not given
row,SMILES,ILS at 25 mg/kg
1,NC(=S)c1c(N)n(C2O[C@H](CO)[C@@H](O)[C@H]2O)c2ncnc(N)c12 (stereo partly specified),37%

# System: Mus musculus
# Test: In vivo increase in life span of drug treated (L1210-bearing) mice administered at a dose of 600 mg/kg/injection
# Format: functional
# Conditions: not given
row,SMILES,ILS at 600 mg/kg
1,N#Cc1c(Br)n(C2O[C@H](CO)[C@@H](O)[C@H]2O)c2ncnc(N)c12 (stereo partly specified),22%

# System: Mus musculus
# Test: In vivo increase in life span of drug treated (L1210-bearing) mice administered at a dose of 100 mg/kg/injection
# Format: functional
# Conditions: not given
row,SMILES,ILS at 100 mg/kg
1,Nc1ncnc2c1c1c(=S)[nH]c(=O)[nH]c1n2C1O[C@H](CO)[C@@H](O)[C@H]1O (stereo partly specified),4%
2,Nc1ncnc2c1c1c(O)ncnc1n2C1O[C@H](CO)[C@@H](O)[C@H]1O (stereo partly specified),20%
3,Nc1ncnc2c1c1c(N)ncnc1n2[C@@H]1O[C@H](CO)[C@@H](O)[C@H]1O,-9%
4,Nc1ncnc2c1c1c(S)ncnc1n2C1O[C@H](CO)[C@@H](O)[C@H]1O (stereo partly specified),38%

# System: Mus musculus
# Test: In vivo increase in life span of drug treated (L1210-bearing) mice administered at a dose of 320 mg/kg/injection
# Format: functional
# Conditions: not given
row,SMILES,ILS at 320 mg/kg
1,Nc1ncnc2c1c1cnc(O)nc1n2C1O[C@H](CO)[C@@H](O)[C@H]1O (stereo partly specified),10%
